From PMC10812557, “Progressive Design of a Ranatuerin-2 Peptide from Amolops wuyiensis: Enhancement of Bioactivity and In Vivo Efficacy” (Antibiotics, 2023)
Like-named read-outs stand apart in the source and are kept apart here. Peptide text beside a SMILES is read from it.

Tests used:
[1] = system: P. aeruginosa (ATCC 9027); format: cell-based
Source text: (§1) The MIC and MBC assays were used to assess the inhibitory activities of all 5 analogues of R2AW on the growth of planktonic microorganisms. The MIC is the lowest concentration that prevents the viable growth of bacteria. The MBC is the lowest concentration that results in bacterial death. Six microorganisms were used to detect the antimicrobial activity of peptides, including Gram-positive bacteria S. aureus (NCTC 10788), MRSA (NCTC 12493), Enterococcus faecalis (E. faecalis) (NCTC 12697), Gram-negative bacteria E. coli […], Klebsiella pneumoniae (K. pneumoniae) (ATCC 43816), and Pseudomonas aeruginosa (P. aeruginosa) (ATCC 9027). According to the assay described previously, the microorganisms were inoculated at 37 °C overnight and diluted to 5 × 10^5 CFU/mL after reaching the logarithmic growth period. The peptide stock solution at the concentration of 512 × 10^2 μM was prepared and diluted to 100 μM by a 2-fold dilution. One μL of each concentration of peptide solution was incubated with 99 μL of bacterial subculture in the 96-well plate for 18 h at 37 °C. The absorbance was determined at a wavelength of 550 nm using a Synergy HT plate reader (Bio Tek, Washington, DC, USA). […] As for those wells that were clearly visible, 20 μL of the solution was dropped onto the Mueller Hinton agar (MHA) dish and then incubated at 37 °C overnight. The lowest concentration with no colony growth was determined as the MBC.

[2] = system: E. coli (ATCC 8739); format: cell-based
Source text: as §1

[3] = system: K. pneumoniae (ATCC 43816); format: cell-based
Source text: as §1

[4] = system: S. aureus (NCTC 10788); assay: microbe, parasite or virus in culture; format: cell-based
Source text: as §1

[5] = system: E. faecium (NTCC 12697); assay: microbe, parasite or virus in culture; format: cell-based
Source text: as §1

[6] = system: MRSA (NCTC 12493); assay: microbe, parasite or virus in culture; format: cell-based; settings: MRSA (NCTC 12493)
Source text: as §1

[7] = system: P. aeruginosa (ATCC 9027); format: cell-based, Pseudomonas aeruginosa
Experimental: (§2) As a previous study described in detail, the ability of R2AW and its analogues to inhibit and eradicate the formation of biofilm was investigated. The MBIC is the lowest concentration which inhibits the formation of biofilm. The MBEC is the minimum concentration that eradicates biofilm. Six bacterial strains were used, as described above. Briefly, the bacteria were cultured and then diluted to 5 × 10^5 CFU/mL. In MBIC assays, 1 μL of each concentration of R2AW and its analogues (ranging from 512 × 10^2 μM to 100 μM) was mixed with 99 μL of diluted bacterial suspension in a 96-well plate for 16-20 h at 37 °C. As for MBEC assays, 100 μL of cultured bacteria were seeded in a 96-well plate and incubated on the shaking incubator at 37 °C overnight for biofilm formation. Subsequently, each well was rinsed twice with 100 μL sterile PBS to remove planktonic cells, and then replaced with 100 μL of each concentration (ranging from 512 μM to 1 μM) of peptides. After 24 h incubation, the biofilm was washed twice with 100 μL of PBS and fixed with methanol. Next, the same volume of 0.1% crystal violet solution (Sigma-Aldrich, Gillingham, UK) was added to each well to stain the biofilm. After that, 100 μL of 30% of acetic acid (Sigma-Aldrich, Gillingham, UK) was transferred to each well for dissolution. The solutions were transferred into a new 96-well plate and the absorbances of wells was monitored using a Synergy HT plate reader set to 595 nm.

[8] = system: S. aureus (NCTC 10788); format: cell-based, Staphylococcus aureus
Experimental: as §2

[9] = system: MRSA (NCTC 12493); format: cell-based, methicillin-resistant Staphylococcus aureus; settings: NCTC 12493
Experimental: as §2

[10] = system: E. coli (ATCC 8739); format: cell-based, Escherichia coli
Experimental: as §2

[11] = system: HCT116; format: cell-based, human; settings: 24 h
Experimental: (§3) Five human cancer cell lines of non-small-cell lung cancer H838, human prostate carcinoma PC-3, human neuronal glioblastoma U251MG, human breast cancer cell MCF-7, and colorectal carcinoma HCT116 were used to detect the antiproliferative abilities of R2AW and its five analogues. According to the procedures in a previous article, cells (8000 cells/well) were seeded into the 96-well tissue culture plates and incubated at 37 °C with 5% CO2 overnight. The solutions of R2AW and its analogues at concentrations of 10^−4 M to 10^−9 M were prepared in the serum-free medium. Next, cells in each well were treated with 100 μL of each peptide solution for 24 h. Subsequently, 10 μL of 5 mg/mL MTT (3-(4, 5-Dimethylthiazol-2-yl-)-2, 5-Diphehyltetrazolium Bromide) was added to each well followed by 37 °C incubation for 2 h. After that, the liquid in each well was removed and 100 μL of DMSO was added to dissolve the purple formazan. The plate was placed on a shaking incubator for 10 min, and the absorbance was detected at 550 nm using a Synergy HT plate reader (Biotech, Minneapolis, MN, USA).

[12] = system: U251MG; format: cell-based, human; settings: 24 h
Experimental: as §3

[13] = system: PC-3; format: cell-based, human; settings: 24 h
Experimental: as §3

[14] = system: H838; format: cell-based, human; settings: 24 h
Experimental: as §3

[15] = system: MCF-7; format: cell-based, human; settings: 24 h
Experimental: as §3

[16] = system: E. faecium (NTCC 12697); format: cell-based
Experimental: as §2

[17] = system: K. pneumoniae (ATCC 43816); format: cell-based, Klebsiella pneumoniae
Experimental: as §2

CC[C@H](C)[C@H](NC(=O)CN)C(=O)NCC(=O)N[C@@H](C)C(=O)N[C@H](C(=O)N[C@@H](CC(C)C)C(=O)N[C@@H](CCCCN)C(=O)N[C@H](C(=O)N[C@@H](CC(C)C)C(=O)N[C@H](C(=O)N[C@H](C(=O)NCC(=O)N[C@@H](CC(C)C)C(=O)N1CCC[C@H]1C(=O)N[C@@H](C)C(=O)N[C@@H](CC(C)C)C(=O)N[C@H](C(=O)N[C@@H](CO)C(=O)N[C@@H](Cc1c[nH]c2ccccc12)C(=O)N[C@H](C(=O)N[C@@H](CCCCN)C(=O)N[C@@H](CCCNC(=N)N)C(=O)N[C@@H](CCCCN)C(=O)N[C@@H](CCCNC(=N)N)C(=O)N[C@@H](CCC(N)=O)C(=O)N[C@@H](CCC(N)=O)C(N)=O)[C@@H](C)CC)[C@@H](C)CC)[C@@H](C)O)[C@@H](C)O)C(C)C)C(C)C [Melittin, reference compound]
MBC ([1]; P. aeruginosa (ATCC 9027)): 32 µM
MBC ([2]; E. coli (ATCC 8739)): 4 µM
MBC ([3]; K. pneumoniae (ATCC 43816)): 32 µM
MIC ([3]; K. pneumoniae (ATCC 43816)): 32 µM
MBC ([4]; S. aureus (NCTC 10788)): 2 µM
MBC ([5]; E. faecium (NTCC 12697)): 2 µM
MIC ([5]; E. faecium (NTCC 12697)): 2 µM
MBC [6]: 2 µM

CSCC[C@H](NC(=O)[C@H](Cc1ccccc1)NC(=O)CN)C(=O)N[C@@H](CC(=O)O)C(=O)N[C@H](C(=O)N[C@@H](C)C(=O)N[C@@H](CCCCN)C(=O)N[C@@H](CC(N)=O)C(=O)N[C@H](C(=O)N[C@@H](C)C(=O)N[C@@H](CCCCN)C(=O)N[C@@H](CC(N)=O)C(=O)N[C@H](C(=O)N[C@@H](C)C(=O)N[C@@H](C)C(=O)N[C@H](C(=O)N[C@@H](CC(C)C)C(=O)N[C@@H](CC(C)C)C(=O)N[C@@H](CC(=O)O)C(=O)N[C@@H](CCCCN)C(=O)N[C@@H](CC(C)C)C(=O)N[C@@H](CCCCN)C(=O)O)[C@@H](C)O)C(C)C)C(C)C)[C@@H](C)O [R2AW(1-22)] (H-GFMDTAKNVAKNVAATLLDKLK-OH)
MBEC [7]: >512 µM
MBIC [7]: >512 µM
MBEC [8]: >512 µM
MBIC [8]: >512 µM
MBEC [9]: >512 µM
MBIC [9]: >512 µM
MBEC [10]: >512 µM
MBIC [10]: >512 µM
IC50 [11]: 1120 µM
IC50 [12]: 1820 µM
IC50 [13]: 1480 µM
IC50 [14]: 1420 µM
IC50 [15]: 894 µM
MBEC [16]: >512 µM
MBIC [16]: >512 µM
MBEC [17]: >512 µM
MBIC [17]: >512 µM
MBC ([1]; ATCC 9027, 18 h): > 1202 µg/mL
MIC ([1]; ATCC 9027, 18 h): > 1203 µg/mL
MBC ([2]; ATCC 8739, 18 h): > 1202 µg/mL
MIC ([2]; ATCC 8739, 18 h): > 1203 µg/mL
MBC ([3]; ATCC 43816, 18 h): > 1202 µg/mL
MIC ([3]; ATCC 43816, 18 h): > 1203 µg/mL
MBC ([4]; NCTC 10788, 18 h): > 1202 µg/mL
MIC ([4]; NCTC 10788, 18 h): > 1203 µg/mL
MBC ([5]; NTCC 12697, 18 h): > 1202 µg/mL
MIC ([5]; NTCC 12697, 18 h): > 1203 µg/mL
MBC [6]: > 1202 µg/mL
MIC [6]: > 1203 µg/mL
